Experimental data reported in publication PMC3428805 (Journal of Medicinal Chemistry, 2012).
Read-outs that look alike come from different tables or passages of the source. Each block holds one compound with its values, some of them ahead of it.

Assays:
[1] = target: T1, Eg5 (Homo sapiens, UniProt P52732)
T1 sequence (P52732 1-368): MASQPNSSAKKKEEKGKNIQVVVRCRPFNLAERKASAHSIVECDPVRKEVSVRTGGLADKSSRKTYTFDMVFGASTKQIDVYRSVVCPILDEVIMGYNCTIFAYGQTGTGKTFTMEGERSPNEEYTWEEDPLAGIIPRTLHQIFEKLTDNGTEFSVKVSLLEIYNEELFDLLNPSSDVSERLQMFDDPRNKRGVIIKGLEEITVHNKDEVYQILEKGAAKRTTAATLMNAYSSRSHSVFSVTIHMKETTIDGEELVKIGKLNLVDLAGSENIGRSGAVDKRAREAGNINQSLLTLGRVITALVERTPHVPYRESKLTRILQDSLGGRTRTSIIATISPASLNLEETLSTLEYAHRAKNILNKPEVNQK

[2] = Evaluation of acid stability at pH = 1 by LC-HRMS; assay type: physicochemical; conditions: for hydrolysis / decomposition at pH 1.0: pH 1.0, in words
[3] = Human plasma protein binding, equilibrium dialysis; conditions: 50%
[4] = Mouse microsomal stability; conditions: mouse microsomes, 3 µM
[5] = Human microsomal stability; conditions: human microsomes, 3 µM
[6] = Human hepatocyte stability; conditions: cryopreserved hepatocytes, 3 µM
[7] = test system: K562 cells; experiment: cells; assay type: cell-based; conditions: Homo sapiens, K562, 72 h
[8] = log P and pKa, potentiometric method
[9] = log D7.4; conditions: n-octanol/buffer, pH 7.4
[10] = Parallel artificial membrane permeability assay; assay type: in vitro ADME; conditions: passive permeability
[11] = calculated from Ki^app of basal ATPase inhibition

SMILES: NCCSC(c1ccccc1)(c1ccccc1)c1ccccc1 [compound 2, 2-(Tritylsulfanyl)ethanamine]
- ligand efficiency [1]: 0.39

SMILES: N[C@@H](CSC(c1ccccc1)(c1ccccc1)c1cccc(Cl)c1)C(=O)O [compound 13, (2 R)-2-Amino-3-(((3-chloroxyphenyl)(diphenyl)methyl)sulfanyl)propanoic acid]
- ligand efficiency [1, 11]: 0.36

SMILES: NCCSC(c1ccccc1)(c1ccccc1)c1cccc(F)c1 [compound 12, 2-(((3-Fluorophenyl)(diphenyl)methyl)sulfanyl)ethanamine]
- ligand efficiency [1, 11]: 0.36

SMILES: N[C@@H](CNC(c1ccccc1)(c1ccccc1)c1ccccc1)C(=O)O [compound 7, (2 S)-2-Amino-3-(tritylamino)propanoic acid]
- hydrolysis / decomposition at pH 1.0 [2]: completely hydrolyzed

SMILES: COc1cccc(C(SCCN)(c2ccccc2)c2ccccc2)c1 [compound 21, 2-(((3-Methoxyphenyl)(diphenyl)methyl)sulfanyl)ethanamine]
- ligand efficiency [1, 11]: 0.37

SMILES: Cc1ccc(C(=O)N(CCCN)[C@@H](c2nc3cc(Cl)ccc3c(=O)n2Cc2ccccc2)C(C)C)cc1 [compound 54, ispinesib, reference compound]
- recovery at 5 µM [3]: 50.6%
- microsomal stability, Clint, mice [4]: stable
- microsomal stability, Clint, human [5]: stable

SMILES: Cc1cccc(C(CC[C@H](N)C(=O)O)(c2ccccc2)c2ccccc2)c1 [(S)-29]
- human hepatocytes, intrinsic clearance [6]: stable
- recovery at 5 µM [3]: 52.3%
- microsomal stability, Clint, mice [4]: stable
- microsomal stability, Clint, human [5]: stable
- GI50 ([7]; read-out: K562 cells, GI50): 0.128 ± 0.015 µM
- pKa ([8]; pKa 1): 9.07
- pKa ([8]; pKa 2): 2.55

- logD [9]: 1.13
- PAMPA Papp [10]: no membrane diffusion detected
SMILES: NC(=O)c1cccc(C(SC[C@H](N)C(=O)O)(c2ccccc2)c2ccccc2)c1 [compound 41, (R)-2-amino-3-(((3-carbamoylphenyl)diphenylmethyl)sulfanyl)propanoic acid]

SMILES: Cc1cccc(C(CC[C@@H](N)C(=O)O)(c2ccccc2)c2ccccc2)c1 [(R)-29]
- human hepatocytes, intrinsic clearance [6]: stable
- recovery at 5 µM [3]: 50.1%
- microsomal stability, Clint, mice [4]: stable
- microsomal stability, Clint, human [5]: stable
- GI50 ([7]; read-out: K562 cells, GI50): 0.091 ± 0.009 µM
- pKa ([8]; pKa 1): 9.07
- pKa ([8]; pKa 2): 2.55

- stability at pH 1.0 ([2]; 5 days at pH 1.0): stable
SMILES: NCCCC(c1ccccc1)(c1ccccc1)c1ccccc1 [compound 10, 4,4,4-Triphenylbutan-1-amine]

SMILES: NCCOC(c1ccccc1)(c1ccccc1)c1ccccc1 [compound 6, 2-(Trityloxy)ethanamine]
- hydrolysis / decomposition at pH 1.0 [2]: decomposed after 16 h

SMILES: NCCSC(c1ccccc1)(c1ccccc1)c1cccc(Cl)c1 [compound 14, 2-(((3-Chlorophenyl)(diphenyl)methyl)sulfanyl)ethanamine]
- ligand efficiency [1, 11]: 0.37

- t1/2, acid stability ([2]; pH 1.0, 0-24 h, LC-HRMS): stable
SMILES: N[C@@H](CSC(c1ccccc1)(c1ccccc1)c1ccccc1)C(=O)O [compound 1, S-trityl-L-cysteine, reference compound]

SMILES: NCCNC(c1ccccc1)(c1ccccc1)c1ccccc1 [compound 8, N-Tritylethane-1,2-diamine]
- ligand efficiency [1]: 0.33
- hydrolysis / decomposition at pH 1.0 [2]: completely hydrolyzed

- PAMPA Papp [10]: no permeability recorded
SMILES: N[C@@H](CSC(c1ccccc1)(c1ccccc1)c1cccc(O)c1)C(=O)O [compound 35, (2 R)-2-Amino-3-(((3-hydroxyphenyl)(diphenyl)methyl)sulfanyl)propanoic acid]

SMILES: Cc1ccc(C(CCC(N)C(=O)O)(c2ccccc2)c2ccccc2)cc1 (racemic) [rac-32, 2-Amino-5,5-diphenyl-5-(4-methylphenyl)pentanoic acid]
- GI50 ([7]; read-out: K562 cells, GI50, 72 h, Alamar blue): 0.098 ± 0.005 µM
